From patent publication US20220395472A1 (Dermavant Sciences GmbH, priority 2021, published 2022)

Tested on: adults with plaque psoriasis
Assay: Long-term open-label extension study (PSOARING 3): Physician Global Assessment (PGA), treatment episodes, treatment success, remittive effect
Type: in vivo, human
Conditions: for Proportion of subjects who never achieved PGA = 0 or 1 throughout the study / Proportion of subjects who achieved PGA = 0 or 1 at least 1 time during the study: entering with PGA ≥ 2
Protocol: This extension study consisted of up to 40 weeks of treatment and a 4 week, safety follow up period.
At the completion of the Week 12 visit of the DB, pivotal Phase 3 study, eligibility of the subjects opting to enroll in this extension study was confirmed. Study visits during the treatment period for all subjects occurred every 4 weeks (±3 days). A phone call was performed at Week 2 (Day 15). Unscheduled visits may have occurred, as needed. Subjects who withdrew from this study before Week 40 returned to the study center for an Early Termination visit. The total duration of this extension study participation was 44 weeks. Subjects in this study were treated as follows based on their PGA score from the Week 12 visit in the DB, pivotal Phase 3 study (Study DMVT 505 3001 or Study DMVT 505 3002).
The PGA was used to assess the primary efficacy endpoint in this study. The PGA is a clinical tool for assessing the current state/severity of a subject's psoriasis at a given time point. It is a static, 5 point, morphological assessment of overall disease severity, as determined by the Investigator, using the clinical characteristics of erythema, scaling, and plaque thickness/elevation as guidelines; higher PGA scores represent more severe disease (0=clear, 1=almost clear, 2=mild, 3=moderate, and 4=severe). The BSA affected was not considered in scoring of the PGA. Variations of the PGA are frequently used in clinical studies because it is a simple assessment, similar to those used in clinical practice. The PGA was performed first, prior to the % BSA, PASI, and LTS assessments.
Time to event parameters, such as the time from treatment success to subsequent worsening (PGA≥2) or duration of treatment episode, were summarized by the Kaplan Meier product limit method using OC.

[1] = entering with PGA = 0, Kaplan-Meier, Overall
[2] = entering with PGA = 0, Kaplan-Meier, Tapinarof (Pivotal) group
[3] = entering with PGA = 0, Kaplan-Meier, Vehicle (Pivotal) group
[4] = entering with PGA = 0, Tapinarof (Pivotal) group
[5] = entering with PGA = 0, Vehicle (Pivotal) group
[6] = entering with PGA ≥ 1, Kaplan-Meier, Vehicle (Pivotal) group
[7] = entering with PGA ≥ 1, Tapinarof (Pivotal) group
[8] = entering with PGA ≥ 1, Vehicle (Pivotal) group
[9] = final analysis, overall, baseline

CC(C)c1c(O)cc(/C=C/c2ccccc2)cc1O [Tapinarof, 3,5-Dihydroxy-4-isopropyl-trans-stilbene]
PGA 2 - Mild (Week 40 OC, Vehicle (Pivotal)): 35 (31.0) n (%) | PGA 3 - Moderate (Week 40 OC, Vehicle (Pivotal)): 15 (13.3) n (%) | PGA 4 - Severe (Week 40 OC, Vehicle (Pivotal)): 0 (0.0) n (%) | PGA Change from Baseline: Improved by 1 (Week 40 OC, Vehicle (Pivotal)): 41 (36.3) n (%) | PGA Change from Baseline: Improved by 2 (Week 40 OC, Vehicle (Pivotal)): 27 (23.9) n (%) | PGA Change from Baseline: Improved by 3 (Week 40 OC, Vehicle (Pivotal)): 17 (15.0) n (%) | PGA Change from Baseline: Improved by 4 (Week 40 OC, Vehicle (Pivotal)): 1 (0.9) n (%) | PGA Change from Baseline: No Change (Week 40 OC, Vehicle (Pivotal)): 19 (16.8) n (%) | PGA Change from Baseline: Worsened by 1 (Week 40 OC, Vehicle (Pivotal)): 7 (6.2) n (%) | PGA Change from Baseline: Worsened by 2 (Week 40 OC, Vehicle (Pivotal)): 1 (0.9) n (%) | PGA Change from Baseline: Worsened by 3 (Week 40 OC, Vehicle (Pivotal)): 0 (0.0) n (%) | PGA Change from Baseline: Worsened by 4 (Week 40 OC, Vehicle (Pivotal)): 0 (0.0) n (%) | Durability of Response, No. of Subjects (Wk. 0, Overall): 240 | Durability of Response, No. of Subjects (Wk. 0, Tapinarof→Tapinarof): 18 | Durability of Response, No. of Subjects (Wk. 4, Overall): 273 | Durability of Response, No. of Subjects (Wk. 4, Tapinarof→Tapinarof): 216 | Durability of Response, No. of Subjects (Wk. 4, Vehicle→Tapinarof): 57 | Durability of Response, No. of Subjects (Wk. 8, Overall): 330 | Durability of Response, No. of Subjects (Wk. 8, Tapinarof→Tapinarof): 243 | Durability of Response, No. of Subjects (Wk. 8, Vehicle→Tapinarof): 87 | Durability of Response, No. of Subjects (Wk. 12, Overall): 334 | Durability of Response, No. of Subjects (Wk. 12, Tapinarof→Tapinarof): 233 | Durability of Response, No. of Subjects (Wk. 16, Overall): 336 | Durability of Response, No. of Subjects (Wk. 16, Tapinarof→Tapinarof): 239 | Durability of Response, No. of Subjects (Wk. 16, Vehicle→Tapinarof): 97 | Durability of Response, No. of Subjects (Wk. 20, Overall): 358 | Durability of Response, No. of Subjects (Wk. 20, Tapinarof→Tapinarof): 250 | Durability of Response, No. of Subjects (Wk. 24, Overall): 346 | Durability of Response, No. of Subjects (Wk. 24, Tapinarof→Tapinarof): 236 | Durability of Response, No. of Subjects (Wk. 28, Overall): 336 | Durability of Response, No. of Subjects (Wk. 28, Tapinarof→Tapinarof): 230 | Durability of Response, No. of Subjects (Wk. 32, Overall): 339 | Durability of Response, No. of Subjects (Wk. 32, Tapinarof→Tapinarof): 233 | Durability of Response, No. of Subjects (Wk. 36, Overall): 340 | Durability of Response, No. of Subjects (Wk. 36, Tapinarof→Tapinarof): 225 | Durability of Response, No. of Subjects (Wk. 40, Overall): 330 | Durability of Response, No. of Subjects (Wk. 40, Tapinarof→Tapinarof): 224 | Time to First Worsening (PGA ≥ 2), Median (95% CI) (entering with PGA = 0 (n=78), Kaplan-Meier, Overall, interim): 115 (85.0, 162.0) days | Time to First Worsening (PGA ≥ 2), 25th percentile (95% CI) [1]: 54 (29.0, 66.0) days | Time to First Worsening (PGA ≥ 2), 75th percentile (95% CI) [1]: 222 (169.0, 309.0) days | Time to First Worsening (PGA ≥ 2), 25th percentile (95% CI) [2]: 54 (29.0, 76.0) days | Time to First Worsening (PGA ≥ 2), 75th percentile (95% CI) [2]: 196 (168.0, 309.0) days | Time to First Worsening (PGA ≥ 2), Median (95% CI) [2]: 114 (85.0, 142.0) days | Time to First Worsening (PGA ≥ 2), 25th percentile (95% CI) [3]: 66 (42.0, NE) days | Time to First Worsening (PGA ≥ 2), Median (95% CI) [3]: 281 (42.0, NE) days | Proportion of subjects who experienced PGA ≥ 2 at least 1 time during the study (entering with PGA = 0, Overall): 59/78 (75.6) % | Proportion of subjects who never experienced PGA ≥ 2 throughout the study (entering with PGA = 0, Overall): 19/78 (24.4) % | Proportion of subjects who experienced PGA ≥ 2 at least 1 time during the study (entering with PGA = 0, Overall, listed as tapinarof): 75.6% | Proportion of subjects who experienced PGA ≥ 2 at least 1 time during the study [4]: 56/73 (76.7) % | Proportion of subjects who never experienced PGA ≥ 2 throughout the study [4]: 17/73 (23.3) % | Proportion of subjects who experienced PGA ≥ 2 at least 1 time during the study [5]: 3/5 (60.0) % | Proportion of subjects who never experienced PGA ≥ 2 throughout the study [5]: 2/5 (40.0) % | Time to First Achieving PGA = 0, 25th percentile (entering with PGA ≥ 1, Kaplan-Meier, Overall): 141 days | Time to First Achieving PGA = 0, 25th percentile (entering with PGA ≥ 1, Kaplan-Meier, Overall, listed as tapinarof): 141 days | Time to First Achieving PGA = 0, 25th percentile (entering with PGA ≥ 1, Kaplan-Meier, Tapinarof (Pivotal) group): 113 days | Time to First Achieving PGA = 0, 25th percentile (entering with PGA ≥ 1, Kaplan-Meier, Tapinarof (Pivotal) group, listed as tapinarof): 113 days | Time to First Achieving PGA = 0, 25th percentile [6]: 169 days | Time to First Achieving PGA = 0, Median [6]: 313 days | Time to First Achieving PGA = 0, 25th percentile (entering with PGA ≥ 1, Kaplan-Meier, Vehicle (Pivotal) group, listed as tapinarof): 169 days | Proportion of subjects who achieved PGA = 0 at least 1 time during the study (entering with PGA ≥ 1, Overall): 221/681 (32.5) % | Proportion of subjects who never achieved PGA = 0 throughout the study (entering with PGA ≥ 1, Overall): 460/681 (67.5) % | Proportion of subjects who achieved PGA = 0 at least 1 time during the study (entering with PGA ≥ 1, Overall, listed as tapinarof): 32.5% | Proportion of subjects who achieved PGA = 0 at least 1 time during the study [7]: 139/432 (32.2) % | Proportion of subjects who never achieved PGA = 0 throughout the study [7]: 293/432 (67.8) % | Proportion of subjects who achieved PGA = 0 at least 1 time during the study (entering with PGA ≥ 1, Tapinarof (Pivotal) group, listed as tapinarof): 32.2% | Proportion of subjects who achieved PGA = 0 at least 1 time during the study [8]: 82/249 (32.9) % | Proportion of subjects who never achieved PGA = 0 throughout the study [8]: 167/249 (67.1) % | Proportion of subjects who achieved PGA = 0 at least 1 time during the study (entering with PGA ≥ 1, Vehicle (Pivotal) group, listed as tapinarof): 32.9% | Proportion of subjects who never achieved PGA = 0 or 1 throughout the study (Overall): 222/520 (42.7) % | Proportion of subjects who achieved PGA = 0 or 1 at least 1 time during the study (Overall, interim): 298/520 (57.3) % | Proportion of subjects who achieved PGA = 0 or 1 at least 1 time during the study (Overall, interim, listed as tapinarof): 57.3% | Proportion of subjects who achieved PGA = 0 or 1 at least 1 time during the study (Tapinarof (Pivotal) group): 154/288 (53.5) % | Proportion of subjects who never achieved PGA = 0 or 1 throughout the study (Tapinarof (Pivotal) group): 134/288 (46.5) % | Proportion of subjects who achieved PGA = 0 or 1 at least 1 time during the study (Tapinarof (Pivotal) group, listed as tapinarof): 53.5% | Proportion of subjects who achieved PGA = 0 or 1 at least 1 time during the study (Vehicle (Pivotal) group): 144/232 (62.1) % | Proportion of subjects who never achieved PGA = 0 or 1 throughout the study (Vehicle (Pivotal) group): 88/232 (37.9) % | Proportion of subjects who achieved PGA = 0 or 1 at least 1 time during the study (Vehicle (Pivotal) group, listed as tapinarof): 62.1% | Patients entering with PGA≥2 who achieved PGA 0 or 1 at least once during the study (final analysis): 58.2% | Patients who achieved complete disease clearance (PGA=0) at least once during the study (final analysis, 312/763): 40.9% | participants with PGA=0 or 1 (final analysis, overall, Week 40): 44.3% | participants with PGA=0 [9]: 10.4% | participants with PGA=0 or 1 [9]: 31.6% | mean total duration of remittive effect (final analysis, patients entering with, or achieving, PGA=0 (n=312)): 130 days
